What follows are cell lines tested with COc1cc([C@@H]2c3cc4c(cc3[C@@H](O[C@@H]3O[C@@H]5CO[C@@H](C)O[C@H]5[C@H](O)[C@H]3O)[C@H]3COC(=O)[C@H]23)OCO4)cc(OC)c1O [Etoposide] + C[C@]1(O)C[C@@H](c2nc(-c3ccc4ccc(-c5ccccc5)nc4c3)c3c(N)nccn32)C1 [Linsitinib] (partner 1 µM) (assay: relative viability (nuclei count vs DMSO), 5 days (fraction); higher = more cells survive). Conditions: first compound 0.01 µM.
How it was run: (§1)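 Relative viability divides the nuclei count in treated wells by that in vehicle wells. Lung cancer cell lines were seeded in 1536-well plates, dosed by pin tool the next day, and fixed and stained after 5 days in one step with final 0.05% Triton X-100, 1% formaldehyde and 1 ug/ml Hoechst. Dosing was a single drug or a fixed anchor-drug dose plus five library-drug doses (not always all listed) in √10 steps, and values are medians of duplicate plates imaged at 4×.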

In order of rising relative viability:
1. A549  0.41
2. HCC-78  0.436
3. HCC-366  0.474
4. LK-2  0.522
5. NCI-H2228  0.535
6. IA-LM  0.584
7. NCI-H1703  0.672
8. EMC-BAC-2  0.719
9. NCI-H2126  0.738
10. ABC-1  0.753
11. NCI-H2085  0.8
12. NCI-H1993  0.81
13. COR-L23  0.818
14. NCI-H596  0.86
15. H3255  0.872
16. COR-L 105  0.874
17. EBC-1  0.903
18. NCI-H1666  0.906
19. Calu-6  0.914
20. NCI-H838  0.937
21. NCI-H1299  0.973
22. LCLC-103H  0.998
23. PC-14  1.01
24. SK-MES-1  1.05
25. NCI-H647  1.14
26. NCI-H1563  1.17

Same assay, conditions: first compound 0.03162 µM

In order of falling relative viability:
1. NCI-H647  1.15
2. NCI-H596  1.13
3. LCLC-103H  1.12
4. H3255  1.11
5. SK-MES-1  1.07
6. NCI-H2087  1.06
7. PC-14  1.05
8. NCI-H1563  1.05
9. NCI-H1703  1.04
10. NCI-H1299  1.03
11. Calu-6  1.01
12. NCI-H838  0.994
13. COR-L 105  0.958
14. EBC-1  0.942
15. ABC-1  0.894
16. NCI-H2085  0.883
17. COR-L23  0.841
18. EMC-BAC-2  0.803
19. NCI-H1666  0.765
20. NCI-H2126  0.719
21. NCI-H1993  0.692
22. HCC-366  0.678
23. IA-LM  0.596
24. A549  0.584
25. NCI-H2228  0.57
26. HCC-78  0.525
27. LK-2  0.442

Same assay, conditions: first compound 0.1 µM

In order of falling relative viability:
1. NCI-H647  1.13
2. COR-L 105  1.02
3. NCI-H1299  1
4. NCI-H1563  0.957
5. PC-14  0.956
6. COR-L23  0.942
7. LCLC-103H  0.93
8. NCI-H838  0.902
9. NCI-H2087  0.889
10. ABC-1  0.879
11. SK-MES-1  0.862
12. NCI-H2085  0.859
13. Calu-6  0.819
14. H3255  0.815
15. NCI-H2228  0.728
16. NCI-H1993  0.7
17. NCI-H1703  0.642
18. EMC-BAC-2  0.58
19. NCI-H1666  0.523
20. NCI-H2126  0.457
21. EBC-1  0.349
22. IA-LM  0.348
23. HCC-366  0.337
24. LK-2  0.295
25. HCC-78  0.255
26. A549  0.225

Same assay, conditions: first compound 0.3162 µM

In order of rising relative viability:
1. HCC-366  0.166
2. A549  0.262
3. EMC-BAC-2  0.273
4. HCC-78  0.322
5. NCI-H1666  0.362
6. NCI-H647  0.416
7. ABC-1  0.418
8. LK-2  0.442
9. IA-LM  0.506
10. NCI-H2085  0.51
11. COR-L23  0.578
12. NCI-H2087  0.588
13. NCI-H2126  0.598
14. SK-MES-1  0.612
15. NCI-H2228  0.627
16. NCI-H1703  0.641
17. NCI-H838  0.644
18. NCI-H1993  0.662
19. NCI-H1563  0.673
20. H3255  0.713
21. Calu-6  0.758
22. COR-L 105  0.769
23. EBC-1  0.788
24. PC-14  0.838
25. NCI-H1299  0.879
26. NCI-H596  0.948
27. LCLC-103H  1.02

Same assay, conditions: first compound 1 µM

In order of falling relative viability:
1. LCLC-103H  0.902
2. NCI-H596  0.884
3. COR-L 105  0.713
4. NCI-H1299  0.7
5. NCI-H1563  0.612
6. NCI-H1993  0.537
7. IA-LM  0.527
8. PC-14  0.507
9. EBC-1  0.466
10. NCI-H2228  0.462
11. NCI-H2126  0.437
12. Calu-6  0.39
13. H3255  0.336
14. NCI-H1666  0.333
15. NCI-H1703  0.329
16. ABC-1  0.308
17. NCI-H2087  0.303
18. NCI-H838  0.296
19. NCI-H2085  0.279
20. SK-MES-1  0.262
21. COR-L23  0.237
22. EMC-BAC-2  0.186
23. HCC-78  0.181
24. LK-2  0.18
25. NCI-H647  0.164
26. A549  0.0891
27. HCC-366  0.0566

What follows are cell lines tested with COc1cc([C@@H]2c3cc4c(cc3[C@@H](O[C@@H]3O[C@@H]5CO[C@@H](C)O[C@H]5[C@H](O)[C@H]3O)[C@H]3COC(=O)[C@H]23)OCO4)cc(OC)c1O [Etoposide] + CC(=O)Nc1cccc(-n2c(=O)n(C3CC3)c(=O)c3c(Nc4ccc(I)cc4F)n(C)c(=O)c(C)c32)c1 [Trametinib] (partner 0.02 µM) in the same assay as above. Conditions: first compound 0.01 µM.
How it was run: as §1

In order of falling relative viability:
1. ChaGo-K-1  0.881
2. NCI-H2170  0.843
3. EMC-BAC-2  0.818
4. NCI-H1666  0.818
5. NCI-H2342  0.777
6. NCI-H522  0.756
7. SW 900  0.741
8. PC-14  0.715
9. NCI-H596  0.7
10. LK-2  0.688
11. LCLC-103H  0.607
12. HCC-78  0.585
13. H3255  0.578
14. COR-L23  0.578
15. NCI-H2126  0.539
16. SK-MES-1  0.5
17. NCI-H2228  0.485
18. NCI-H2085  0.484
19. NCI-H838  0.463
20. NCI-H1650  0.459
21. COR-L 105  0.443
22. HCC-366  0.338
23. NCI-H647  0.309
24. NCI-H2087  0.206

Same assay, conditions: first compound 0.03162 µM

In order of rising relative viability:
1. NCI-H2087  0.213
2. HCC-366  0.36
3. COR-L 105  0.479
4. NCI-H838  0.502
5. SK-MES-1  0.518
6. NCI-H1650  0.541
7. NCI-H647  0.546
8. NCI-H1648  0.552
9. NCI-H2228  0.576
10. NCI-H1993  0.619
11. NCI-H2085  0.643
12. SW 900  0.653
13. COR-L23  0.666
14. PC-14  0.678
15. NCI-H2126  0.683
16. H3255  0.707
17. LCLC-103H  0.748
18. HCC-78  0.759
19. EMC-BAC-2  0.774
20. LK-2  0.861
21. NCI-H522  0.875
22. NCI-H2342  0.881
23. NCI-H1666  0.89
24. ChaGo-K-1  0.905
25. NCI-H596  0.965
26. NCI-H2170  1.03

Same assay, conditions: first compound 0.1 µM

In order of falling relative viability:
1. NCI-H1666  0.809
2. PC-14  0.798
3. NCI-H596  0.772
4. ChaGo-K-1  0.752
5. NCI-H522  0.744
6. LCLC-103H  0.742
7. SW 900  0.649
8. HCC-78  0.648
9. SK-MES-1  0.594
10. EMC-BAC-2  0.531
11. NCI-H2342  0.505
12. LK-2  0.498
13. NCI-H1650  0.458
14. NCI-H1993  0.441
15. COR-L 105  0.439
16. NCI-H2126  0.427
17. NCI-H2085  0.423
18. H3255  0.411
19. NCI-H838  0.378
20. NCI-H1648  0.362
21. NCI-H647  0.351
22. COR-L23  0.348
23. NCI-H2228  0.32
24. HCC-366  0.249
25. NCI-H2087  0.173

Same assay, conditions: first compound 0.3162 µM

In order of rising relative viability:
1. HCC-366  0.0581
2. NCI-H2087  0.2
3. NCI-H1650  0.257
4. NCI-H2085  0.266
5. NCI-H2228  0.279
6. SW 900  0.354
7. NCI-H2342  0.355
8. EMC-BAC-2  0.364
9. ChaGo-K-1  0.394
10. HCC-78  0.403
11. NCI-H647  0.405
12. NCI-H838  0.406
13. COR-L 105  0.437
14. LK-2  0.438
15. NCI-H2126  0.455
16. SK-MES-1  0.46
17. NCI-H1993  0.481
18. COR-L23  0.488
19. PC-14  0.491
20. NCI-H1648  0.523
21. NCI-H1666  0.526
22. H3255  0.57
23. LCLC-103H  0.64
24. NCI-H522  0.703
25. NCI-H596  0.727
26. NCI-H2170  0.877

Same assay, conditions: first compound 1 µM

In order of falling relative viability:
1. NCI-H2170  0.723
2. NCI-H522  0.649
3. NCI-H596  0.646
4. LCLC-103H  0.582
5. NCI-H1666  0.508
6. NCI-H1993  0.444
7. NCI-H1648  0.416
8. COR-L 105  0.398
9. H3255  0.347
10. NCI-H2342  0.344
11. NCI-H2126  0.312
12. EMC-BAC-2  0.308
13. HCC-78  0.299
14. SK-MES-1  0.277
15. NCI-H2085  0.271
16. NCI-H838  0.253
17. SW 900  0.25
18. ChaGo-K-1  0.248
19. COR-L23  0.233
20. PC-14  0.229
21. LK-2  0.2
22. NCI-H2228  0.168
23. NCI-H2087  0.147
24. NCI-H1650  0.143
25. NCI-H647  0.134
26. HCC-366  0.0512

The cell lines below were run with COc1cc([C@@H]2c3cc4c(cc3[C@@H](O[C@@H]3O[C@@H]5CO[C@@H](C)O[C@H]5[C@H](O)[C@H]3O)[C@H]3COC(=O)[C@H]23)OCO4)cc(OC)c1O [Etoposide] + CCNC(=O)c1noc(-c2cc(C(C)C)c(O)cc2O)c1-c1ccc(CN2CCOCC2)cc1 [Luminespib] (partner 0.01 µM) in the same assay as above. Conditions: first compound 0.01 µM.
How it was run: as §1

In order of falling relative viability:
1. NCI-H522  1.03
2. NCI-H1993  0.827
3. NCI-H1623  0.541
4. NCI-H838  0.394
5. NCI-H1650  0.204
